Test results as given in ChEMBL document CHEMBL1201862, “PubChem BioAssay data set” (2004).
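Tested at 5 concentrations; 48 h exposure; 96-well plates; endpoints linearly interpolated, else capped at highest concentration. GI50 = concentration required for 50% inhibition of growth.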 The source made the active and inactive calls. No stated cut-off is given here; in the data, active = GI50 up to about 1.1 µM and inactive = higher.

Experiments:
Test in all cases: inhibition of tumour cell growth, NCI panel, 48 h
IGROV-1 = test system: IGROV-1
CCRF-CEM = test system: CCRF-CEM
NCI-H23 = test system: NCI-H23
HL-60 = test system: HL-60
TK-10 = test system: TK-10
COLO 205 = test system: COLO 205
ACHN = test system: ACHN
RXF 631 = test system: RXF 631
SK-OV-3 = test system: SK-OV-3
OVCAR-8 = test system: OVCAR-8
EKVX = test system: EKVX
OVCAR-5 = test system: OVCAR-5
UO-31 = test system: UO-31
OVCAR-3 = test system: OVCAR-3
Hs-578T = test system: Hs-578T
MDA-MB-435 = test system: MDA-MB-435
NCI/ADR-RES = test system: NCI/ADR-RES
MDA-N = test system: MDA-N
T47D = test system: T47D
BT-549 = test system: BT-549

Compound | GI50 (IGROV-1) | GI50 (CCRF-CEM) | GI50 (NCI-H23) | GI50 (HL-60) | GI50 (TK-10) | GI50 (COLO 205) | GI50 (ACHN) | GI50 (RXF 631) | GI50 (SK-OV-3) | GI50 (OVCAR-8) | GI50 (EKVX) | GI50 (OVCAR-5) | GI50 (UO-31) | GI50 (OVCAR-3) | GI50 (Hs-578T) | GI50 (MDA-MB-435) | GI50 (NCI/ADR-RES) | GI50 (MDA-N) | GI50 (T47D) | GI50 (BT-549)
COC(=O)C(C(=O)C(=O)Nc1ccc(C)cc1C)c1nc2ccc([N+](=O)[O-])cc2nc1O (centres undefined) | > 100 µM (inactive) | 71.4 µM (inactive) | > 100 µM (inactive) | 34.8 µM (inactive) | > 100 µM (inactive) | 95.7 µM (inactive) | > 100 µM (inactive) | > 100 µM (inactive) | > 100 µM (inactive) | > 100 µM (inactive) | > 100 µM (inactive) | > 100 µM (inactive) | 76.2 µM (inactive) |  |  |  |  |  |  | 
O=C(O)C12C3CCC(C3)C1(C(=O)O)C1CCC2C1 (centres undefined) | > 100 µM (inactive) | 32.8 µM (inactive) | > 100 µM (inactive) | 39.6 µM (inactive) | > 100 µM (inactive) | 33 µM (inactive) | > 100 µM (inactive) | > 100 µM (inactive) | > 100 µM (inactive) | > 100 µM (inactive) | > 100 µM (inactive) | > 100 µM (inactive) | > 100 µM (inactive) | > 100 µM (inactive) |  |  |  |  |  | 
CNC(=O)NCNC(=O)NC | > 100 µM (inactive) | > 100 µM (inactive) | > 100 µM (inactive) | > 100 µM (inactive) | > 100 µM (inactive) | > 100 µM (inactive) |  | > 100 µM (inactive) | > 100 µM (inactive) | > 100 µM (inactive) | > 100 µM (inactive) | > 100 µM (inactive) |  | > 100 µM (inactive) |  |  |  |  |  | 
COc1cc(C2(C)SCCCS2)cc(OC)c1OC | > 100 µM (inactive) | > 100 µM (inactive) | > 100 µM (inactive) | > 100 µM (inactive) | > 100 µM (inactive) | > 100 µM (inactive) | > 100 µM (inactive) | > 100 µM (inactive) | > 100 µM (inactive) | > 100 µM (inactive) | > 100 µM (inactive) | > 100 µM (inactive) | > 100 µM (inactive) | > 100 µM (inactive) |  |  |  |  |  | 
O=C1C2c3[nH]c4ccccc4c3[C@@H]3CCCCC3C2C(=O)N1c1ccccc1 (some centres undefined) | 23 µM (inactive) | 26.5 µM (inactive) | 19.5 µM (inactive) | 20.3 µM (inactive) | 28 µM (inactive) | 19.1 µM (inactive) | 25.4 µM (inactive) | 14.8 µM (inactive) | 26.9 µM (inactive) | 26.4 µM (inactive) | 15.3 µM (inactive) | 16.8 µM (inactive) | 17.3 µM (inactive) | 15.4 µM (inactive) |  |  |  |  |  | 
O=C(/C=C/c1ccc(OCCSCCCCCCCCCCSCCOc2ccc(/C=C/C(=O)c3ccc(Cl)cc3)cc2)cc1)c1ccc(Cl)cc1 | > 100 µM (inactive) | > 100 µM (inactive) | > 94.6 µM (inactive) | > 100 µM (inactive) | > 100 µM (inactive) | > 100 µM (inactive) | > 88.1 µM (inactive) | > 66.1 µM (inactive) | 65.5 µM (inactive) | > 100 µM (inactive) | > 100 µM (inactive) | > 100 µM (inactive) | > 100 µM (inactive) | > 100 µM (inactive) | > 78.5 µM (inactive) | > 100 µM (inactive) | > 100 µM (inactive) | > 100 µM (inactive) | > 100 µM (inactive) | > 100 µM (inactive)
Cc1cccc(N2C(=O)/C(=C/c3ccc(N(CCC#N)CCC#N)cc3C)N=C2c2cc([N+](=O)[O-])ccc2Cl)c1 | > 100 µM (inactive) | 41.9 µM (inactive) | > 100 µM (inactive) | 74 µM (inactive) | > 100 µM (inactive) | 47.3 µM (inactive) | > 100 µM (inactive) | > 100 µM (inactive) | > 100 µM (inactive) | > 100 µM (inactive) | 68.1 µM (inactive) | > 100 µM (inactive) | > 100 µM (inactive) | > 100 µM (inactive) |  |  |  |  |  | 
CC1(C)O/C(=C\c2ccccc2)C(=O)/C(=C/c2ccccc2)O1 | 51.4 µM (inactive) | 15.8 µM (inactive) | 20 µM (inactive) | 9.25 µM (inactive) | 44.2 µM (inactive) | 43.3 µM (inactive) | 33.8 µM (inactive) | 33.8 µM (inactive) | 72.6 µM (inactive) | 45.2 µM (inactive) | 37.9 µM (inactive) | 14.7 µM (inactive) | 19.1 µM (inactive) | 27.1 µM (inactive) |  |  |  |  |  | 
CN(C)NC(=O)/C(=C/c1ccc(Cl)cc1)NC(=O)c1ccccc1 | > 100 µM (inactive) | > 100 µM (inactive) | > 100 µM (inactive) | 34.4 µM (inactive) | > 100 µM (inactive) | 45.2 µM (inactive) | > 100 µM (inactive) | 55.3 µM (inactive) | > 100 µM (inactive) | > 100 µM (inactive) | > 100 µM (inactive) | > 100 µM (inactive) | 57.1 µM (inactive) | > 100 µM (inactive) |  |  |  |  |  | 
CN1CC[C@]2(C)c3cc(O)ccc3CC3CCCC1C32C (some centres undefined) | > 100 µM (inactive) | > 100 µM (inactive) | > 100 µM (inactive) | > 100 µM (inactive) | > 100 µM (inactive) | > 100 µM (inactive) | > 100 µM (inactive) | > 100 µM (inactive) | > 100 µM (inactive) | > 100 µM (inactive) | > 100 µM (inactive) | > 100 µM (inactive) | 89.7 µM (inactive) | > 100 µM (inactive) |  |  |  |  |  | 
CCOC(=O)C(=O)Nc1ccc([N+](=O)[O-])cc1C#N | > 100 µM (inactive) | > 100 µM (inactive) | > 100 µM (inactive) | > 100 µM (inactive) | > 100 µM (inactive) |  | > 100 µM (inactive) | > 100 µM (inactive) | > 100 µM (inactive) | > 100 µM (inactive) | > 100 µM (inactive) | > 100 µM (inactive) | > 100 µM (inactive) | > 100 µM (inactive) |  |  |  |  |  | 
CCCOc1ccc(/C=C/c2cc(OC)c(OC)c(OC)c2)cc1 | 0.399 µM (active) | 0.324 µM (active) | 0.23 µM (active) | 0.155 µM (active) | 55.1 µM (inactive) | 0.298 µM (active) | 0.697 µM (active) | 2.03 µM (inactive) |  | 0.525 µM (active) | 6.53 µM (inactive) | 28 µM (inactive) | 0.482 µM (active) | 0.146 µM (active) |  |  |  |  |  | 
